From patent US20190374563A1, “TREATMENT OF KLEBSIELLA PNEUMONIAE INFECTIONS WITH ANTIBACTERIAL AMINOGLYCOSIDE COMPOUNDS” (Achaogen, Inc., priority 2009, published 2019) come the findings set out here.

Converted amounts (≈) assume the structure as drawn. Where two headings read alike, the source gives them in different places.

Test [1] concerns P. aeruginosa ATCC 27853 (APAE001). Kind of test: MIC assay, CLSI broth microdilution. Type of test: cell-based. To be noted: Pseudomonas aeruginosa. Here is the method: (§1) Minimum inhibitory concentrations (MIC) were determined by reference Clinical and Laboratory Standards Institute (CLSI) broth microdilution methods per M7-A7 [2006]. Quality control ranges utilizing E. coli ATCC 25922, P. aeruginosa ATCC 27853 and S. aureus ATCC 29213, and interpretive criteria for comparator agents were as published in CLSI M100-S17 [2007]. Briefly, serial two-fold dilutions of the test compounds were prepared at 2× concentration in Mueller Hinton Broth. The compound dilutions were mixed in 96-well assay plates in a 1:1 ratio with bacterial inoculum. The inoculum was prepared by suspension of a colony from an agar plate that was prepared the previous day. Bacteria were suspended in sterile saline and added to each assay plate to obtain a final concentration of 5×10^5 CFU/mL. The plates were incubated at 35° C. for 20 hours in ambient air.
For orientation: Dilution methods test growth across graded concentrations, often in twofold steps.

The subject of test [2] is E. coli ATCC 25922 (AECO001). Kind of test: MIC assay, CLSI broth microdilution. It counts as cell-based. Also on record: MIC AECO001: unit not given here. The following applies: for MIC: Escherichia coli. Here is the method: as §1
Setting [3] is: ATCC27853, read-out: MIC APAE001.
Setting [4] is: ATCC25922, read-out: MIC AECO001.
Where [5] appears, read: Table 1, APAE001 is ATCC27853, read-out: MIC APAE001.
Where [6] appears, read: Table 1, AECO001 is ATCC25922, read-out: MIC AECO001.

For `CN[C@@H]1[C@@H](O)[C@@H](O[C@@H]2[C@@H](O)[C@H](O[C@H]3OC(CNCC(N)CO)=CC[C@H]3N)[C@@H](N)C[C@H]2NC(=O)[C@@H](O)CCN)OC[C@]1(C)O` (stereo partly drawn) [Example 30, 6′-(2-Amino-propanol)-1-(4-amino-2(S)-hydroxy-butyryl)-sisomicin], the MIC (commonly the least concentration at which growth counts as inhibited) was 1 to 16 µg/mL (≈ 1.61 to 25.7 µM) in test [1] (setting [3]) and under 1 µg/mL in test [2] (setting [4]).
The corresponding values for `CN[C@@H]1[C@@H](O)[C@@H](O[C@@H]2[C@@H](O)[C@H](O[C@H]3OC(CNCC4(O)CCNCC4)=CC[C@H]3N)[C@@H](N)C[C@H]2NC(=O)[C@@H](O)CCN)OC[C@]1(C)O` [Example 31] are 1 to 16 µg/mL (≈ 1.51 to 24.2 µM) and 1 to 16 µg/mL (≈ 1.51 to 24.2 µM).
For the molecule `CN[C@@H]1[C@@H](O)[C@@H](O[C@@H]2[C@@H](O)[C@H](O[C@H]3OC(CNCC(O)CCCN)=CC[C@H]3N)[C@@H](N)C[C@H]2NC(=O)[C@@H](O)CCN)OC[C@]1(C)O` (stereo partly drawn) [Example 32, 6′-(2-Hydroxy-5-amino-pentyl)-1-(4-amino-2(S)-hydroxy-butyryl)-sisomicin], the results for the minimum inhibitory concentration (MIC) in test [1] (setting [3]) and in test [2] (setting [4]) were 1 to 16 µg/mL (≈ 1.54 to 24.6 µM) and under 1 µg/mL, respectively.
Regarding `CN[C@@H]1[C@@H](O)[C@@H](O[C@@H]2[C@@H](O)[C@H](O[C@H]3OC(CNC[C@H]4C[C@H](N)C4)=CC[C@H]3N)[C@@H](N)C[C@H]2NC(=O)[C@@H](O)CCN)OC[C@]1(C)O` [Example 33, 6′-(Methyl-trans-3-amino-cyclobutyl)-1-(4-amino-2(S)-hydroxy-butyryl)-sisomicin], the minimum inhibitory concentration (MIC) was 1 to 16 µg/mL (≈ 1.58 to 25.3 µM) in test [1] (setting [3]) and under 1 µg/mL in test [2] (setting [4]).
On to `CN[C@@H]1[C@@H](O)[C@@H](O[C@@H]2[C@@H](O)[C@H](O[C@H]3OC(CNCC(O)CCN)=CC[C@H]3N)[C@@H](N)C[C@H]2NC(=O)C2(O)CCNC2)OC[C@]1(C)O` (some centres unmarked) [Example 35], for which the MIC in test [1] (setting [3]) is 1 to 16 µg/mL (≈ 1.54 to 24.7 µM); in test [2] (setting [4]), under 1 µg/mL.
Regarding `CN[C@@H]1[C@@H](O)[C@@H](O[C@@H]2[C@@H](O)[C@H](O[C@H]3OC(CNCCO)=CC[C@H]3N)[C@@H](N)C[C@H]2NC(=O)C2(O)CNC2)OC[C@]1(C)O` [Example 37], the MIC in test [1] (setting [3]) was 1 to 16 µg/mL (≈ 1.69 to 27.1 µM); in test [2] (setting [4]), under 1 µg/mL.
As to `CN[C@@H]1[C@@H](O)[C@@H](O[C@@H]2[C@@H](O)[C@H](O[C@H]3OC(CNCCN)=CC[C@H]3N)[C@@H](N)C[C@H]2NC(=O)[C@@H](O)CCN)OC[C@]1(C)O` [Example 38, 6′-(2-Amino-ethyl)-1-(4-amino-2(S)-hydroxy-butyryl)-sisomicin], the MIC is 1 to 16 µg/mL (≈ 1.69 to 27 µM) in test [1] (setting [3]) and under 1 µg/mL in test [2] (setting [4]).
As to `CN[C@@H]1[C@@H](O)[C@@H](O[C@@H]2[C@@H](O)[C@H](O[C@H]3OC(CNCCCN)=CC[C@H]3N)[C@@H](N)C[C@H]2NC(=O)C2(O)CCNC2)OC[C@]1(C)O` (some centres unmarked) [Example 40], the MIC in test [1] (setting [3]) and in test [2] (setting [4]) was 1 to 16 µg/mL (≈ 1.62 to 25.9 µM) in each case.
With `CN[C@@H]1[C@@H](O)[C@@H](O[C@@H]2[C@@H](O)[C@H](O[C@H]3OC(CNCC4CC4)=CC[C@H]3N)[C@@H](N)C[C@H]2NC(=O)C2(O)CCNC2)OC[C@]1(C)O` (some centres unmarked) [Example 41], the figures for the MIC in test [1] (setting [3]) and in test [2] (setting [4]) were 1 to 16 µg/mL (≈ 1.63 to 26 µM) and under 1 µg/mL, respectively.
`CN[C@@H]1[C@@H](O)[C@@H](O[C@@H]2[C@@H](O)[C@H](O[C@H]3OC(CNCC(O)CN)=CC[C@H]3N)[C@@H](N)C[C@H]2NC(=O)C2(O)CCNC2)OC[C@]1(C)O` (some centres unmarked) [Example 42, 6′-(2-Hydroxy-3-amino-propyl)-1-(3-hydroxy-pyrrolidin-3-yl-acetyl)-sisomicin]: the MIC in test [1] (setting [3]) and in test [2] (setting [4]) was 1 to 16 µg/mL (≈ 1.58 to 25.2 µM) each time.
In the case of `CN[C@@H]1[C@@H](O)[C@@H](O[C@@H]2[C@@H](O)[C@H](O[C@H]3OC(CNCCCCN)=CC[C@H]3N)[C@@H](N)C[C@H]2NC(=O)[C@@H](O)CCN)OC[C@]1(C)O` [Example 43, 6′-(4-Amino-butyl)-1-(4-amino-2(S)-hydroxy-butyryl)-sisomicin], the MIC in test [1] (setting [3]) and in test [2] (setting [4]) was under 1 µg/mL throughout.
Consider `CN[C@@H]1[C@@H](O)[C@@H](O[C@@H]2[C@@H](O)[C@H](O[C@H]3OC(CNCCCCCN)=CC[C@H]3N)[C@@H](N)C[C@H]2NC(=O)[C@@H](O)CCN)OC[C@]1(C)O` [Example 44, 6′-(5-Amino-pentyl)-1-(4-amino-2(S)-hydroxy-butyryl)-sisomicin], for which the MIC in test [1] (setting [3]) was 1 to 16 µg/mL (≈ 1.58 to 25.2 µM); in test [2] (setting [4]) it was under 1 µg/mL.
For the molecule `CN[C@@H]1[C@@H](O)[C@@H](O[C@@H]2[C@@H](O)[C@H](O[C@H]3OC(CNCCC4CNCCN4C)=CC[C@H]3N)[C@@H](N)C[C@H]2NC(=O)[C@@H](O)CCN)OC[C@]1(C)O` (some centres unmarked) [Example 45], the values for the MIC in test [1] (setting [5]) and in test [2] (setting [6]) were 1 to 16 µg/mL (≈ 1.48 to 23.7 µM) and under 1 µg/mL, respectively.
For the molecule `CN[C@@H]1[C@@H](O)[C@@H](O[C@@H]2[C@@H](O)[C@H](O[C@H]3OC(CNCC4(O)CC(N)C4)=CC[C@H]3N)[C@@H](N)C[C@H]2NC(=O)[C@@H](O)CCN)OC[C@]1(C)O` (some centres unmarked) [Example 46], the values for the MIC in test [1] (setting [3]) and in test [2] (setting [4]) were 1 to 16 µg/mL (≈ 1.54 to 24.7 µM) and under 1 µg/mL, respectively.
Regarding `CN[C@@H]1[C@@H](O)[C@@H](O[C@@H]2[C@@H](O)[C@H](O[C@H]3OC(CNCC4(O)CC(N)C4)=CC[C@H]3N)[C@@H](N)C[C@H]2NC(=O)C2(O)CNC2)OC[C@]1(C)O` (some centres unmarked) [Example 47], the MIC in test [1] (setting [3]) and in test [2] (setting [4]) was 1 to 16 µg/mL (≈ 1.55 to 24.8 µM) throughout.
In the case of `CN[C@@H]1[C@@H](O)[C@@H](O[C@@H]2[C@@H](O)[C@H](O[C@H]3OC(CNCCCN)=CC[C@H]3N)[C@@H](N)C[C@H]2NC(=O)[C@@H](O)CCN)OC[C@]1(C)O` [Example 48, 6′-(3-Amino-propyl)-1-(4-amino-2(S)-hydroxy-butyryl)-sisomicin], the figures for the MIC in test [1] (setting [5]) and in test [2] (setting [6]) were 1 to 16 µg/mL (≈ 1.65 to 26.4 µM) and under 1 µg/mL, respectively. For the same molecule, in test [2] (Table 3, E. coli ATCC25922), the “MIC AECO001” value is 1.
Turning to `CN[C@@H]1[C@@H](O)[C@@H](O[C@@H]2[C@@H](O)[C@H](O[C@H]3OC(CNCC4CCCN4)=CC[C@H]3N)[C@@H](N)C[C@H]2NC(=O)[C@@H](O)CCN)OC[C@]1(C)O` (stereo partly drawn) [Example 49, 6′-(Methyl-pyrrolidin-2-yl)-1-(4-amino-2(S)-hydroxy-butyryl)-sisomicin], the MIC is 1 to 16 µg/mL (≈ 1.58 to 25.3 µM) in test [1] (setting [3]) and under 1 µg/mL in test [2] (setting [4]).
For the molecule `CN[C@@H]1[C@@H](O)[C@@H](O[C@@H]2[C@@H](O)[C@H](O[C@H]3OC(CNC[C@H](O)C(=O)O)=CC[C@H]3N)[C@@H](N)C[C@H]2NC(=O)[C@@H](O)CCN)OC[C@]1(C)O` [Example 50, 6′-(2(S)-Hydroxy-3-propanoic)-1-(4-amino-2(S)-hydroxy-butyryl)-sisomicin], the minimal inhibitory concentration (MIC) in test [1] (setting [3]) and in test [2] (setting [4]) was over 16 µg/mL in each case.
In the case of `CN[C@@H]1[C@@H](O)[C@@H](O[C@@H]2[C@@H](O)[C@H](O[C@H]3OC(CNCC(C)(C)CN)=CC[C@H]3N)[C@@H](N)C[C@H]2NC(=O)[C@@H](O)CN)OC[C@]1(C)O` [Example 51, 6′-(2,2-Dimethyl-3-amino-propyl)-1-(3-amino-2(S)-hydroxy-propionyl)-sisomicin], the MIC is over 16 µg/mL in test [1] (setting [3]) and under 1 µg/mL in test [2] (setting [4]).
`CN[C@@H]1[C@@H](O)[C@@H](O[C@@H]2[C@@H](O)[C@H](O[C@H]3OC(CNCCC(N)C4CC4)=CC[C@H]3N)[C@@H](N)C[C@H]2NC(=O)[C@@H](O)CN)OC[C@]1(C)O` (stereo partly drawn) [Example 52, 6′-(3-Amino-3-cyclopropyl-propyl)-1-(3-amino-2(S)-hydroxy-propionyl)-sisomicin]: the MIC in test [1] (setting [3]) is 1 to 16 µg/mL (≈ 1.58 to 25.3 µM); in test [2] (setting [4]) it was under 1 µg/mL.
